Source: patent US5705170A, “Herbal cellulite treatments” (priority 1995, dated 1998)

How the values were obtained:
[1] = system: adipocytes isolated from the thigh area of volunteers (adipocyte β receptors); experiment: Lipolysis stimulation by glycerin release in isolated adipocytes; format: cell-based, human; details: for Concentration at maximum stimulation: lipolysis; for Emax: Homo sapiens, Adipocyte, read-out: Maximum stimulation (lipolysis)
Description: Glycerin release was used as a parameter to quantify lipolysis in actively metabolism adipocytes isolated from the thigh area of volunteers and evaluate various ingredients for their ability to stimulate adipocyte β receptors. Refined, or purified Malvaceae extracts comprising preferred aqueous or lipophilic fractions as described above, and some known β-adrenergic stimulators used in anticellulite treatments, namely the xanthines aminophylline, caffeine and theophylline, were tested. Also tested, for comparative purposes, were a crude Hibiscus Abelmoschus extract and a herbal ingredient that has been used in anticellulite compositions, ivy extract.

[2] = system: isolated adipocytes (adipocyte α2-receptors); experiment: Inhibition of adipocyte lipid synthesis (lipogenesis); format: cell-based
Description: The results obtained are reported below in Table 2.

cAMP = cAMP level (elevation of cAMP); format: cell-based, human
[3] = glycerin release, most effective concentration

Row | SMILES | Maximum stimulation (lipolysis) [1, 3] [%] | Concentration at maximum stimulation [1] [mg/mL] | Lipogenesis inhibition (in words) [2] | Maximum inhibition of adipocyte fat [2] | Elevation of cAMP (cAMP) | Emax [1, 3] [%]
1 | Cn1c(=O)c2[nH]cnc2n(C)c1=O [aminophylline] | 54.0 | 1.00 | No lipogenesis inhibition activity | none | ns | –
2 | Cn1c(=O)c2c(ncn2C)n(C)c1=O [caffeine] | – | 2.00 | – | – | ns | 51
3 | Cn1c(=O)c2[nH]cnc2n(C)c1=O [theophylline] | – | 1.00 | No lipogenesis inhibition activity | none | ns | 45
